From the PolyMetriX glass transition set
± gives the standard deviation of the reports.

SMILES	glass transition temperature [°C]
*CCN(CCN1C(=O)c2ccc(C(c3ccc4c(c3)C(=O)N(*)C4=O)(C(F)(F)F)C(F)(F)F)cc2C1=O)c1ccc(/N=N/c2ccc(C3OCCO3)cc2)cc1 (repeat unit)	178.00
*Oc1ccc(C2(c3ccc(OC(=O)CCCCCCCCC(*)=O)cc3)c3ccccc3Cc3ccccc32)cc1 (repeat unit)	134.00
*CC(*)OCCCCC (repeat unit) [Poly(vinyl n-pentyl ether)]	-66 ± 0.6
*OP(=O)(Oc1ccccc1)OC(CCl)COc1ccc(S(=O)(=O)c2ccc(OCC(*)CCl)cc2)cc1 (repeat unit)	48.00
*CC(=O)C(*)c1ccccc1 (repeat unit)	110.00
*c1ccc(Oc2ccc(S(=O)(=O)c3ccc(C)cc3)cc2)c(-n2c(=O)c3cc4c(=O)n(*)c(=O)c4cc3c2=O)c1 (repeat unit)	320.00
*CC(*)(C)C(=O)OCc1ccc(/C=C/C(=O)C2c3ccccc3C(=O)c3ccccc32)cc1 (repeat unit)	163.00
*CC(CBr)O* (repeat unit)	-14.00
*Oc1ccc(Cc2ccc(OC(*)=O)c(C)c2)cc1C (repeat unit)	51.00
*C(F)(F)C1(F)C(F)(F)C(*)(F)C1(F)F (repeat unit)	122.00
*C(=O)Nc1ccc(Oc2ccc(NC(=O)c3ccc4c(c3)C(=O)N(c3ccc(NC(=O)Nc5ccc(N6C(=O)c7ccc(*)cc7C6=O)cc5)cc3)C4=O)cc2)cc1 (repeat unit)	205.00
*Nc1ccc(C(C)(C)c2ccc(NC(=O)c3cccc(C(*)=O)c3)cc2)cc1 (repeat unit)	279.00
*CC(*)(C)C(=O)OCCCCl (repeat unit)	50.00
*CC(*)(C)C(=O)OCC#CO[Si](C)(C)C (repeat unit)	57.00
*OP(=O)(Oc1ccc(NC(=O)Oc2ccc(C(C)(C)c3ccc(OC(=O)Nc4ccc(*)cc4)cc3)cc2)cc1)c1ccccc1 (repeat unit)	34.00
*c1ccc(Oc2ccc(P(=O)(c3ccccc3)c3ccc(Oc4ccc(-c5nc(-c6ccccc6)[nH]c5*)cc4)cc3)cc2)cc1 (repeat unit)	318.00
*c1ccc(Oc2ccc(N3C(=O)c4cccc(Oc5ccc(C(C)(C)c6ccc(Oc7cccc8c7C(=O)N(*)C8=O)cc6)cc5)c4C3=O)cc2)cc1 (repeat unit)	235.00
*Nc1ccc(NC(=O)c2ccc(NC(=O)CCCCCCCCCCCCC(=O)Nc3ccc(C(*)=O)cc3)cc2)cc1C(=O)OCCCCCCCCCCCCCCCCCC (repeat unit)	191.00
*CC(O)COc1ccc(C(C)(C)c2ccc(O*)cc2)cc1 (repeat unit)	91.00
*Nc1ccccc1-c1ccc(NC(=O)c2cccc(C(*)=O)c2)cc1 (repeat unit)	248.00
*C1C(=O)N(c2ccccc2C(=O)OC)C(=O)C1* (repeat unit)	259.00
*C(=S)Nc1ccc(Oc2ccc(NC(=S)N3C(=O)c4ccc(C(=O)c5ccc6c(c5)C(=O)N(*)C6=O)cc4C3=O)cc2)cc1 (repeat unit)	262.00
*Oc1ccc(C(=O)c2cccc(C(=O)c3ccc(Oc4ccc(Cc5ccc(*)cc5)cc4)cc3)c2)cc1 (repeat unit)	145.00

SMILES	glass transition temperature [°C]
*CC(=O)NC(C)C(=O)O* (repeat unit)	54.60
*Nc1ccc(C(c2ccc(NC(=O)c3ccc(C(c4ccc(C(*)=O)cc4)(C(F)(F)F)C(F)(F)F)cc3)cc2)(P2(=O)Oc3ccccc3-c3ccccc32)P2(=O)Oc3ccccc3-c3ccccc32)cc1 (repeat unit)	235.00
*c1ccc(Oc2ccc(Oc3ccc(Oc4ccc(-c5cnc6cc(-c7ccc8nc(*)cnc8c7)ccc6n5)cc4)cc3)cc2)cc1 (repeat unit)	133.00
*[CH2][Ge]([CH3])([CH3])[CH2]c1cocc1* (repeat unit)	-28.00
*OP(=O)(Oc1ccccc1)Oc1ccc(C(C)(C)c2ccc(*)cc2)cc1 (repeat unit)	74.50
*Oc1ccc(C(C)(C)c2ccc(Oc3ccc(C(=O)Nc4ccc(NC(=O)c5ccc(*)cc5)cc4)cc3)cc2)cc1 (repeat unit)	230.00
*Oc1cccc2ccc(Oc3ccc(NC(=O)c4ccc(Oc5ccc(Oc6ccc(C(=O)Nc7ccc(*)cc7)cc6)cc5)cc4)cc3)cc12 (repeat unit)	224.00
*CC(*)OC(=O)CC1CCCC1 (repeat unit)	-3.00
*C/C(C)=C/C(C)S(*)(=O)=O (repeat unit)	83.00
*CC1CCC(COP(=O)(/N=N/c2ccc(-c3ccc(/N=N/P(=O)(O*)OC)cc3)cc2)OC)CC1 (repeat unit)	58.00
*CC(*)c1cc(-c2ccc(C(=O)OC3CC(C)CCC3C(C)C)cc2)ccc1-c1ccc(C(=O)OC2CC(C)CCC2C(C)C)cc1 (repeat unit)	217.50
*CCCP(CCCNC(=O)CCCCC(=O)N*)c1ccccc1 (repeat unit)	49.00
*Oc1cc(Br)c(C(C)(C)c2c(Br)cc(OC(*)=O)cc2Br)c(Br)c1 (repeat unit)	267.00
*CCCCCCCCCCCCNC(=O)CCCCCCCCCCCCCCCCCCC(=O)N* (repeat unit)	221.60
*c1ccc(-c2ccc(-c3nc4ccccc4c(-c4ccc(Oc5ccc(-c6c(-c7ccccc7)c(*)nc7ccccc67)cc5)cc4)c3-c3ccccc3)cc2)cc1 (repeat unit)	345.00
*CC(*)C(=O)OCCSCCC#N (repeat unit)	-50.00
*Oc1ccc(/C=C/C(=O)c2ccc(Oc3ccc(C(C)(c4ccccc4)c4ccc(*)cc4)cc3)cc2)cc1 (repeat unit)	167.00
*/C=C/CC(C*)c1ccccc1 (repeat unit)	14.00
*CC(*)(CC(=O)OCC1CCCCC1)C(=O)OCC1CCCCC1 (repeat unit)	83.00
*c1ccc(Oc2ccccc2-n2c(=O)c3cc4c(=O)n(*)c(=O)c4cc3c2=O)cc1 (repeat unit)	386.00
*C(=O)Nc1ccc(NC(=O)c2ccc3c(c2)C(=O)N(c2cccc(P(=O)(c4ccccc4)c4cccc(N5C(=O)c6ccc(*)cc6C5=O)c4)c2)C3=O)cc1 (repeat unit)	204.00
*CCC(=O)O* (repeat unit)	-24.00

Continued, values first:

glass transition temperature [°C]	SMILES
33.00	*CC(C)(C)COC(=O)Cc1ccc(C(=O)O*)cc1 (repeat unit)
120.00	*Oc1ccc(S(=O)(=O)N(C)CCCCN(C)S(=O)(=O)c2ccc(Oc3ccc(C(C)(C)c4ccc(*)cc4)cc3)cc2)cc1 (repeat unit)
306.00	*c1ccc(-c2cnc3cc(Oc4ccc5nc(*)cnc5c4)ccc3n2)cc1 (repeat unit)
172.00	*C1C(=O)N(c2ccc(O[Si](C)(C)C)cc2)C(=O)C1* (repeat unit)
277.50	*c1ccc(-c2nc3cc(S(=O)(=O)c4ccc5nc(*)c(-c6ccccc6)nc5c4)ccc3nc2-c2ccccc2)cc1 (repeat unit)
91.00	*CC(*)c1ccc(C(=O)OCCN(C)C)cc1 (repeat unit)
276.00	*c1ccc(Cc2ccc(N3C(=O)CC(Nc4ccc(N(c5ccc(NC6CC(=O)N(*)C6=O)cc5)c5ccc([N+](=O)[O-])cc5)cc4)C3=O)cc2)cc1 (repeat unit)
278.00	*c1ccc(-c2nnc(-c3cccc(-c4nnc(*)o4)c3)o2)cc1 (repeat unit)
40 ± 4.1	*CCCCCCNC(=O)CCCCCCCCC(=O)N* (repeat unit) [Poly(hexamethylene sebacamide) ]
325.00	*Nc1cccc2c(NC(=O)c3cccc(C(*)=O)c3)cccc12 (repeat unit)
215.00	*c1ccc(Oc2ccc(N3C(=O)c4ccc(Oc5ccc(Oc6ccc(Oc7ccc8c(c7)C(=O)N(*)C8=O)cc6)cc5)cc4C3=O)cc2)cc1 (repeat unit)
302.00	*C(=O)Nc1ccc(Oc2ccc(S(=O)(=O)c3ccc(Oc4ccc(NC(=O)c5ccc6c(c5)C(=O)N(c5ccc(Oc7ccc(C8(c9ccc(Oc%10ccc(N%11C(=O)c%12ccc(*)cc%12C%11=O)cc%10)cc9)NC(=O)c9ccccc98)cc7)cc5)C6=O)cc4)cc3)cc2)cc1 (repeat unit)
39.00	*CCCCCCCCCCCNC(=O)CCCCCCCCCCC(=O)N* (repeat unit)
279.00	*c1ccc(OC(=O)c2cc(C(=O)Oc3ccc(C4(*)OC(=O)c5ccccc54)cc3)cc(C(C)(C)C)c2)cc1 (repeat unit)
121.50	*CCCCCCOc1ccc(-c2cc(-c3ccc(-c4ccccc4)cc3)c(-c3ccc(NC(=O)c4ccc(C(=O)Nc5ccc(-c6c(-c7ccc(-c8ccccc8)cc7)cc(-c7ccc(O*)cc7)cc6-c6ccc(-c7ccccc7)cc6)cc5)cc4)cc3)c(-c3ccc(-c4ccccc4)cc3)c2)cc1 (repeat unit)
97.50	*OC(=O)C(Cc1ccccc1)NC(=O)CCCCC(=O)NC(Cc1ccccc1)C(=O)OC1COC2C(*)COC12 (repeat unit)
52.00	*Oc1ccc(CC(NC(=O)CCc2ccc(OC(=O)CCCC(*)=O)cc2)C(=O)OC(C)CC)cc1 (repeat unit)
227.00	*Oc1ccc(C2(c3ccc(Oc4ccc(/C=N/N=C/c5ccc(*)cc5)cc4)cc3)c3ccccc3-c3ccccc32)cc1 (repeat unit)
194.00	*c1ccc(Oc2ccc(Sc3ccc(Oc4ccc(N5C(=O)c6ccc(Oc7ccc(Oc8ccc(Oc9ccc%10c(c9)C(=O)N(*)C%10=O)cc8)cc7)cc6C5=O)cc4)cc3)cc2)cc1 (repeat unit)
105.00	*OC(COC(=O)c1ccccc1C(*)=O)COc1ccc(/N=N/c2ccc(C#N)cc2)cc1 (repeat unit)
136.40	*CCN(CCOC(=O)Nc1ccc(Cc2ccc(NC(=O)O*)cc2)cc1)c1ccc(/N=N/c2ccc([N+](=O)[O-])cc2)cc1 (repeat unit)
